Where a name gives a salt, the structure may show the parent alone.
The compounds below were run against T1, DltA enzyme (Streptococcus agalactiae serotype III, UniProt Q8VM67) (assay: DltA HTS assays (luminescent / fluorescent), inhibition of DltA enzymatic activity in vitro). Conditions: not given.
T1 construct: His-tag (from pET100 vector) (N); made in house; host or cells: E. coli BL21 (DE3) Star
T1 sequence (Q8VM67 1-511): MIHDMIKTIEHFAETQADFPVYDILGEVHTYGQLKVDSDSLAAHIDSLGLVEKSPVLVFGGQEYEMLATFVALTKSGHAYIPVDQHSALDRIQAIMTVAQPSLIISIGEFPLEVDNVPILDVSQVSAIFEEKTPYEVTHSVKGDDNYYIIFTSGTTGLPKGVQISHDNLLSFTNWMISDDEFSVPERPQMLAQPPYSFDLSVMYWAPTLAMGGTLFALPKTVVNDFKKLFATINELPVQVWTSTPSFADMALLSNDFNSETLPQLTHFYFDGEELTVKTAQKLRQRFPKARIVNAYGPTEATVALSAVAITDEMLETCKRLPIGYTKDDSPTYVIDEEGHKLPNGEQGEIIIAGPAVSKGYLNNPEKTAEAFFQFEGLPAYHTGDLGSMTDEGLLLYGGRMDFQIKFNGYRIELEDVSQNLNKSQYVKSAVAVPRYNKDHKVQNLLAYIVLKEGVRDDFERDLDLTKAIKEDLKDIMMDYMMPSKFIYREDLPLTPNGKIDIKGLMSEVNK
Assay type: biochemical, S. agalactiae
Description: The compounds effect on DltA enzyme has been based on the measure of the inhibition of DltA activity in vitro.
To this end, a recombinant protein Dlta was expressed and purified after cloning of the gene of S. agalatiae as described below:
Methods 1: DltA HTS Assays
The assay described below makes use of dithiothreitol (DTT) instead of DltC as reactive thiol in the catalyzed reaction. In fact, the inventors have shown that DTT, but also Coenzyme A and N-Acetylcysteamine are all thiols able to replace efficiently DltC. In addition, contrary to the prior art, radioactivity is not used: all the assays are based either on luminescent ATP detection, or on fluorescent AMP detection. They are easily amenable to miniaturized formats and fast readouts as required by HTS.
The assay buffer “AB” contains 50 mM Hepes pH8.0, 10 mM MgCl2, 50 mM KCl, 0.012% Triton-X100. The following components are added in a white polystyrene Costar plate up to a final volume of 30 μL: 3 μL DMSO, or inhibitor dissolved in DMSO and 27 μL DltA enzyme and DTT in AB. After 30 min of pre-incubation at room temperature, 30 μL of Substrates mix in AB are added in each well to a final volume of 60 μL. This reaction mixture is then composed of 10 nM DltA (produced in house from S. agalactiae), 0.5 mM D-Alanine (Sigma), 0.5 μM ATP (Sigma) and 1 mM DTT (Biochemika) in assay buffer. After 90 min of incubation at room temperature, 30 μL of the revelation mix are added to a final volume of 90 μL, including the following constituents at the respective final concentrations: 2 nM luciferase (Sigma), 30 μM D-luciferin (Sigma), 100 μM N-acetylcysteamine (Aldrich). Luminescence intensity is immediately measured on an Analyst-HT (Molecular Devices) and converted into inhibition percentages. For IC50 (Inhibitory Concentration 50%) determinations, the inhibitor is added at 6 to 10 different concentrations, and the related inhibitions are fitted to a classical langmuir equilibrium model using XLFIT (IDBS).
The assay buffer “AB” contains 50 mM Hepes pH8.0, 10 mM MgCl2, 50 mM KCl, 0.012% Triton-X100. The following components are added in a black polystyrene Costar plate up to a final volume of 50 μL: 5 μL DMSO, or inhibitor dissolved in DMSO and 45 μL DltA enzyme and DTT in AB. After 30 min of pre-incubation at room temperature, 50 μL of Substrates-revelation mix in AB are added in each well to a final volume of 100 μL. This reaction mixture is then composed of 5 nM DltA (produced in house from S. agalactiae), 0.5 mM D-Alanine (Sigma), 10 μM ATP (Sigma), 1 mM DTT (Biochemika), 10 nM Adenylate kinase (produced in house), 5 u/mL Pyruvate Kinase (Sigma), 50 μM phosphoenolpyruvate (Sigma), 5 u/mL Lactate deshydrogenase (Sigma) and 3 μM NADH (Sigma) in assay buffer. Fluorescence intensity of NADH (λex=360 nm, λem=520 nm) is immediately measured kinetically by a Fluostar Optima (BMG). Inhibition percentages are derived from fitted initial velocities. For IC50 determinations, the inhibitor is added at 6 to 10 different concentrations, and the related inhibitions are fitted to a classical langmuir equilibrium model using XLFIT (IDBS). FIG. 2 represents the data obtained using this method.
The capacity of compounds to inhibit DltA enzymatic activity was assessed using the DltA HTS assays described in method 1.

SMILES | IC50
COc1ccc(-c2cc(-c3cnc4c(NCCCO)nc5cc(C(F)(F)F)ccc5n34)[nH]n2)cc1 [Example 31, 3-({1-[1H-pyrazol-3-(4-methoxyphenyl)-5-yl]-7-(trifluoromethyl)imidazo[1,2-a]quinoxalin-4-yl}amino)propan-1-ol] | 790 nM

Same assay, conditions: Table 1; DltA inhibition, HTS assays of method 1; read-out: IC50

SMILES | IC50
NCc1cnc2c(NCCCO)nc3cc(C(F)(F)F)ccc3n12 [Example 45, 3-{[1-(aminomethyl)-7-(trifluoromethyl)imidazo[1,2-a]quinoxalin-4-yl]amino}propan-1-ol] | 5500 nM
OCCCNc1nc2cc(C(F)(F)F)ccc2n2c(-c3ccc(N4CCOCC4)cc3)cnc12 [Example 14, 3-{[1-(4-N-morpholinophenyl)-7-(trifluoromethyl)imidazo[1,2-a]quinoxalin-4-yl]amino}propan-1-ol] | 460 nM
OCCCNc1nc2cc(C(F)(F)F)ccc2n2c(-c3cc(CO)n[nH]3)cnc12 [Example 49, 3-({1-[3-(hydroxymethyl)-1H-pyrazol-5-yl]-7(trifluoromethyl)imidazo[1,2-a]quinoxalin-4-yl}amino)propan-1-ol] | 16 nM
CC(=O)N1CC=C(c2cnc3c(NCCCO)nc4cc(C(F)(F)F)ccc4n23)CC1 [Example 28, 1-{4-[4-(3-hydroxy-propylamino)-7-trifluoromethyl-imidazo[1,2-a]quinoxalin-1-yl]-3,6-dihydro-2H-pyridin-1-yl}-ethanone] | 650 nM
OCCCNc1nc2cc(C(F)(F)F)ccc2n2c(-c3cc(-c4cccnc4)n[nH]3)cnc12 [Example 33, 3-({1-[3-(3-pyridinyl)-1H-pyrazol-5-yl]-7-(trifluoromethyl)imidazo[1,2-a]quinoxalin-4-yl}amino)propan-1-ol] | 25 nM
C=Cc1cnc2c(NCCCO)nc3cc(C(F)(F)F)ccc3n12 [Example 22, 3-{[7-(trifluoromethyl)-1-vinylimidazo[1,2-a]quinoxalin-4-yl]amino}propan-1-ol] | 1000 nM
OCCCNc1nc2cc(C(F)(F)F)c(Br)cc2n2ccnc12 [Example 52, 3-(8-bromo-7-trifluoromethyl-imidazo[1,2-a]quinoxalin-4-ylamino)-propan-1-ol] | 8700 nM
NCc1ccc(-c2cnc3c(NCCCO)nc4cc(C(F)(F)F)ccc4n23)cc1 [Example 18, 3-({1-[4-(aminomethyl)phenyl]-7-(trifluoromethyl)imidazo[1,2-a]quinoxalin-4-yl}amino)propan-1-ol] | 240 nM
NS(=O)(=O)c1cccc(-c2cnc3c(NCCCO)nc4cc(C(F)(F)F)ccc4n23)c1 [Example 9, 3-{4-[(3-hydroxypropyl)amino]-7-(trifluoromethyl)imidazo[1,2-a]quinoxalin-1-yl}benzenesulfonamide] | 690 nM
CS(=O)(=O)N1CC=C(c2cnc3c(NCCCO)nc4cc(C(F)(F)F)ccc4n23)CC1 [Example 29, 3-[1-(1-methanesulfonyl-1,2,3,6-tetrahydro-pyridin-4-yl)-7-trifluoromethyl-imidazo[1,2-a]quinoxalin-4-ylamino]-propan-ol] | 410 nM
OCCCNc1nc2cc(C(F)(F)F)ccc2n2c(-c3cn(Cc4ccccc4)nn3)cnc12 [Example 34] | 580 nM
OCCCNc1nc2cc(Br)ccc2n2ccnc12 [Example 4, 3-(7-bromo-imidazo[1,2-a]quinoxalin-4-ylamino)-propan-1-ol] | 6600 nM
CCSc1ccc2c(c1)nc(NCCCO)c1nccn12 [Example 6] | 6500 nM
OCCCNc1nc2cc(C(F)(F)F)ccc2n2c(C3=CCNCC3)cnc12 [Example 27, 3-[1-(1,2,3,6-tetrahydro-pyridin-4-yl)-7-trifluoromethyl-imidazo[1,2-a]quinoxalin-4-ylamino]-propan-1-ol] | 2600 nM
COc1ccc(-c2cnc3c(NCCCO)nc4cc(C(F)(F)F)ccc4n23)cc1 [Example 10, 3-{[1-(4-methoxyphenyl)-7-(trifluoromethyl)imidazo[1,2-a]quinoxalin-4-yl]amino}propan-1-ol] | 230 nM
OCCCNc1nc2cc(C(F)(F)F)ccc2n2c(CO)cnc12 [Example 42, 3-{[1-(hydroxymethyl)-7-(trifluoromethyl)imidazo[1,2-a]quinoxalin-4-yl]amino}propan-1-ol] | 1100 nM
OCCCNc1nc2cc(C(F)(F)F)ccc2c2c1ncn2[C@H]1CC[C@H](O)CC1 [Example 26, 4-[4-(3-hydroxy-propylamino)-7-trifluoromethyl-imidazo[4,5-c]quinolin-1-yl]-cyclohexanol] | 20000 nM
O=P(O)(O)OCCCNc1nc2cc(C(F)(F)F)ccc2n2c(-c3ccn[nH]3)cnc12 [Example 58, Phosphoric acid mono-{3-[1-(2H-pyrazol-3-yl)-7-trifluoromethyl-imidazo[1,2-a]quinoxalin-4-ylamino]-propyl}ester, disodium salt] | 19000 nM
COc1ccc(-c2cnc3c(NCCCO)nc4cc(C(F)(F)F)ccc4n23)cn1 [Example 13, 3-{[1-(6-methoxypyridin-3-yl)-7-(trifluoromethyl)imidazo[1,2-a]quinoxalin-4-yl]amino}propan-1-ol] | 480 nM
OCCCNc1nc2cc(C(F)(F)F)c(CNc3ccccn3)cc2n2ccnc12 [Example 53, 3-({8-[(pyridin-2-ylamino)methyl]-7-(trifluoromethyl)imidazo[1,2-a]quinoxalin-4-yl}amino)propan-1-ol] | 510 nM
